Laboratory results published in ChEMBL document CHEMBL3352089 (J Med Chem, 2014).

What was measured:
[1] = Cytotoxicity against human HepG2 cells assessed as cell viability at 1 uM after 24 hrs by Cell-Titer Glo assay; format: cell-based; details: read-out: Activity
[2] = Cytotoxicity against human HepG2 cells assessed as cell viability at 10 uM after 24 hrs by Cell-Titer Glo assay; format: cell-based; details: read-out: Activity
[3] = Cytotoxicity against human HepG2 cells assessed as cell viability at 100 uM after 4 hrs by Cell-Titer Glo assay; format: cell-based; details: read-out: Activity
[4] = Cytotoxicity against human HepG2 cells assessed as cell viability at 1 uM after 4 hrs by Cell-Titer Glo assay; format: cell-based; details: read-out: Activity
[5] = Cytotoxicity against human HepG2 cells assessed as cell viability at 10 uM after 4 hrs by Cell-Titer Glo assay; format: cell-based; details: read-out: Activity
[6] = Cytotoxicity against human HepG2 cells assessed as cell viability at 100 uM after 24 hrs by Cell-Titer Glo assay; format: cell-based; details: read-out: Activity
[7] = test system: T1, Activin receptor type-1 (Homo sapiens), Q04771 [Q207D]
T1 sequence (whole entry): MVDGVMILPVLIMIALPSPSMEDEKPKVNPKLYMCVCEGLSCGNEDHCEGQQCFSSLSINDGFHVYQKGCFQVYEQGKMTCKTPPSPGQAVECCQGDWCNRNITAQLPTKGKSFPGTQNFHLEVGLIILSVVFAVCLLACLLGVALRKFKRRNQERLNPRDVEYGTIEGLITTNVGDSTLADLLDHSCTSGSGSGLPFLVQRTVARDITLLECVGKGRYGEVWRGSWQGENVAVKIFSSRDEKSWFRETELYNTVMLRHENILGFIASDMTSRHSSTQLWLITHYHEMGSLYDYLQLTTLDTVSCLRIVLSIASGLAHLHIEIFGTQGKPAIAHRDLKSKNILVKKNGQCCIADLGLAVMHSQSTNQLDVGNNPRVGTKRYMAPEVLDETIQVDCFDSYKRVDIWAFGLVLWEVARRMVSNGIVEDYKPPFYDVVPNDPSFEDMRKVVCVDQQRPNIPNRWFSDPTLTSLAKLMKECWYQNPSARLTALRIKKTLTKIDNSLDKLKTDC

Structure (SMILES): N#CC[C@H](C1CCCC1)n1cc(-c2ncnc3[nH]ccc23)cn1 [RUXOLITINIB]
- viability at 24 h, 1 µM [1]: > 75%
- viability at 24 h, 10 µM [2]: > 75%
- viability at 4 h, 100 µM [3]: > 75%
- viability at 4 h, 1 µM [4]: > 75%
- viability at 4 h, 10 µM [5]: > 75%

Structure (SMILES): COc1ccc(-c2cc(-c3ccc(N4CCNCC4)cc3)cnc2N)cc1
- viability at 24 h, 1 µM [1]: > 75%
- viability at 24 h, 10 µM [2]: > 75%
- viability at 4 h, 1 µM [4]: > 75%
- viability at 4 h, 10 µM [5]: > 75%

Structure (SMILES): c1ccc2c(-c3cnn4cc(-c5ccc(N6CCNCC6)cc5)cnc34)ccnc2c1
- viability at 24 h, 1 µM [1]: > 75%
- viability at 4 h, 1 µM [4]: > 75%
- viability at 4 h, 10 µM [5]: > 75%

Structure (SMILES): COc1cc(-c2cc(-c3ccc(O)cc3)cnc2N)cc(OC)c1OC
- viability at 24 h, 1 µM [1]: > 75%
- viability at 24 h, 10 µM [2]: > 75%
- viability at 4 h, 100 µM [3]: > 75%
- viability at 24 h, 100 µM [6]: > 75%
- viability at 4 h, 1 µM [4]: > 75%
- viability at 4 h, 10 µM [5]: > 75%

Structure (SMILES): c1cc(-c2cnn3cc(-c4ccc(N5CCNCC5)cc4)cnc23)c2cccnc2c1
- viability at 24 h, 1 µM [1]: > 75%
- viability at 24 h, 10 µM [2]: > 75%
- viability at 4 h, 100 µM [3]: > 75%
- viability at 4 h, 1 µM [4]: > 75%
- viability at 4 h, 10 µM [5]: > 75%

Structure (SMILES): COc1cc(-c2cc(-c3cccc(O)c3)cnc2N)cc(OC)c1OC
- viability at 24 h, 1 µM [1]: > 75%
- viability at 24 h, 10 µM [2]: > 75%
- viability at 4 h, 100 µM [3]: > 75%
- viability at 4 h, 1 µM [4]: > 75%
- viability at 4 h, 10 µM [5]: > 75%
- ΔTm [7]: 13.2 °C

Structure (SMILES): COc1ccc(-c2cc(-c3ccc(N4CCNCC4)cc3)cnc2N)cc1OC
- viability at 24 h, 1 µM [1]: > 75%
- viability at 24 h, 10 µM [2]: > 75%
- viability at 4 h, 100 µM [3]: > 75%
- viability at 4 h, 1 µM [4]: > 75%
- viability at 4 h, 10 µM [5]: > 75%

Structure (SMILES): Nc1ncc(-c2ccc(N3CCNCC3)cc2)cc1-c1ccc2c(c1)OCCO2
- viability at 24 h, 1 µM [1]: > 75%
- viability at 24 h, 10 µM [2]: > 75%
- viability at 4 h, 100 µM [3]: > 75%
- viability at 4 h, 1 µM [4]: > 75%
- viability at 4 h, 10 µM [5]: > 75%

Structure (SMILES): CNc1ncc(-c2ccc(N3CCNCC3)cc2)cc1-c1cc(OC)c(OC)c(OC)c1
- viability at 24 h, 1 µM [1]: > 75%
- viability at 24 h, 10 µM [2]: > 75%
- viability at 4 h, 100 µM [3]: > 75%
- viability at 4 h, 1 µM [4]: > 75%
- viability at 4 h, 10 µM [5]: > 75%

Structure (SMILES): COc1cc(-c2cc(-c3ccc(N4CCNCC4)cc3)cnc2OC)cc(OC)c1OC
- viability at 24 h, 1 µM [1]: > 75%
- viability at 24 h, 10 µM [2]: > 75%
- viability at 4 h, 1 µM [4]: > 75%
- viability at 4 h, 10 µM [5]: > 75%

Structure (SMILES): COc1cc(-c2cc(-c3cccc(N4CCNCC4)c3)cnc2N)cc(OC)c1OC
- viability at 24 h, 1 µM [1]: > 75%
- viability at 24 h, 10 µM [2]: > 75%
- viability at 4 h, 100 µM [3]: > 75%
- viability at 4 h, 1 µM [4]: > 75%
- viability at 4 h, 10 µM [5]: > 75%

Structure (SMILES): COc1cc(-c2cc(-c3ccc(N4CCNCC4)cc3)cnc2N)ccc1Cl
- viability at 24 h, 1 µM [1]: > 75%
- viability at 24 h, 10 µM [2]: > 75%
- viability at 4 h, 1 µM [4]: > 75%
- viability at 4 h, 10 µM [5]: > 75%

Structure (SMILES): COc1cc(OC)cc(-c2cc(-c3ccc(N4CCNCC4)cc3)cnc2N)c1
- viability at 24 h, 1 µM [1]: > 75%
- viability at 24 h, 10 µM [2]: > 75%
- viability at 4 h, 1 µM [4]: > 75%
- viability at 4 h, 10 µM [5]: > 75%

Structure (SMILES): COc1cc(OC)cc(-c2cncc(-c3ccc(N4CCNCC4)cc3)c2)c1
- viability at 24 h, 1 µM [1]: > 75%
- viability at 24 h, 10 µM [2]: > 75%
- viability at 4 h, 1 µM [4]: > 75%
- viability at 4 h, 10 µM [5]: > 75%

Structure (SMILES): COc1cc2ncnc(Nc3ccc(F)c(Cl)c3)c2cc1OCCCN1CCOCC1 [GEFITINIB]
- viability at 24 h, 1 µM [1]: > 75%
- viability at 24 h, 10 µM [2]: > 75%
- viability at 4 h, 100 µM [3]: > 75%
- viability at 24 h, 100 µM [6]: > 75%
- viability at 4 h, 1 µM [4]: > 75%
- viability at 4 h, 10 µM [5]: > 75%

Structure (SMILES): COc1cc(-c2cc(-c3cccc(NS(C)(=O)=O)c3)cnc2N)cc(OC)c1OC
- viability at 24 h, 1 µM [1]: > 75%
- viability at 24 h, 10 µM [2]: > 75%
- viability at 4 h, 100 µM [3]: > 75%
- viability at 24 h, 100 µM [6]: > 75%
- viability at 4 h, 1 µM [4]: > 75%
- viability at 4 h, 10 µM [5]: > 75%

Structure (SMILES): C#Cc1cccc(Nc2ncnc3cc(OCCOC)c(OCCOC)cc23)c1 [ERLOTINIB]
- viability at 24 h, 1 µM [1]: > 75%
- viability at 24 h, 10 µM [2]: > 75%
- viability at 4 h, 100 µM [3]: > 75%
- viability at 24 h, 100 µM [6]: > 75%
- viability at 4 h, 1 µM [4]: > 75%
- viability at 4 h, 10 µM [5]: > 75%

Structure (SMILES): CCCS(=O)(=O)Nc1ccc(F)c(C(=O)c2c[nH]c3ncc(-c4ccc(Cl)cc4)cc23)c1F [VEMURAFENIB]
- viability at 24 h, 1 µM [1]: > 75%
- viability at 24 h, 10 µM [2]: > 75%
- viability at 4 h, 100 µM [3]: > 75%
- viability at 4 h, 1 µM [4]: > 75%
- viability at 4 h, 10 µM [5]: > 75%
